Results: patent publication US11360010B1, “Methods and device for controlled cell stretch and imaging” (The Regents of the University of Colorado, a body, priority 2019, dated 2022)
“Also recorded” adds a separate entry of the source.

Experiments:
[1] = tested on: mouse embryonic skin fibroblasts (MSFs); assay: Perinuclear F-actin and γH2a.x staining after cyclic stretch routines; type: cell-based; conditions: BAPTA 50 μM, KN-62 10 μM, cytochalasin D 2 μM
Protocol: (§1) Transgenic mice harboring a fluorescence tag at the H2b histone—B6.Cg-Tg (HIST1H2BB/EGFP) 1 Pa/J, Stock No: 006069—were obtained from Jackson Laboratory (Bar Harbor, Me.). All animal procedures were performed following Institutional Animal Care & Use Committee approval. Skin from embryonic mice was harvested 18.5 days post-conception. Skin was minced, washed with Hank's Balanced Salt Solution (HBSS), and incubated in 35 mm dishes in shallow medium (˜0.5 mL) to avoid floating of the tissue for 4 days, during which fibroblasts extruded from the tissue. After 4 days, remaining tissue was removed (picked out with a pipette), and extruded cells in the dish were detached using TrypLE (Gibco, Gaithersburg, Md.) and expanded in culture for another 2 days before being seeded into stretch chambers for experiments. The inner well of assembled stretch chambers was ozone activated for 30 s via corona arc discharge (BD-20; Electro-Technic Products) and coated with 50 μg/mL bovine plasma fibronectin (F1141; Sigma-Aldrich) in a total volume of 250 μL overnight at 37° C. Mouse embryonic skin fibroblasts (MSFs) were seeded into stretch chambers at a density of 80,000 cells/cm′ 1 day before experiments. MSFs were extruded and cultured in DMEM (ATCC, Manassas, Va.) containing 10% fetal bovine serum (Gibco), 1% penicillin-streptomycin (Gibco), and 25 mM HEPES (Gibco) at 37° C. and 5% CO2. To inhibit calcium signaling, MSFs were incubated with 50 μM BAPTA (A4926; Sigma-Aldrich) or 10 μM KN-62 (12142; Sigma-Aldrich) 1 h before cyclic strain experiments. To disrupt actin polymerization, MSFs were incubated with 2 μM cytochalasin D (C8273; Sigma-Aldrich) 30 min before experiments. Vehicle controls were incubated with 0.001% DMSO (276855; Sigma-Aldrich) 1 h before experiments. To test the use of chromatin dyes, cells were stained with Hoechst (NucBlue Live ReadyProbes; Life Technologies) 30 min before experiments. Stretch experiments were performed at 25° C. (room temperature) under humidified conditions.
MSFs were fixed in 4% ice-cold paraformaldehyde (PFA) for 10 min, permeabilized with 1% Triton-X100 in phosphate-buffered saline for 15, min and blocked with 10% NGS, 1% bovine serum albumin in 0.1% PBT (0.1% Tween-20 in phosphate-buffered saline) for 60 min. Primary incubation of Phospho-Histone H2A.X Ser139 (9718S; Cell Signaling Technology, Danvers, Mass.) was performed at 4° C. overnight in 0.1% PBT containing 1% bovine serum albumin at 1:400. Secondary incubation of goat anti-rabbit IgG-AF546 (Life Technologies) was performed in primary incubation buffer for 45 min at 22° C. at a dilution of 1:500. F-actin was counterstained with phalloidin-CF405 (Biotium, Fremont, Calif.) for 30 min at a dilution of 1:30. Staining was performed in containment wells. After staining, membranes were cut out of the containment well using a circular punch and mounted cell-side up onto #1.0 glass slides with ProLong Diamond Antifade Mountant (Life Technologies). Image stacks (5 μm, 1 μm step) of multiple nuclei in a 318×318 μm area were acquired on a Nikon MR confocal microscope using a 40× oil immersion objective (0.31 μm/pixel). A custom MATLAB code was used to track nuclear outlines via H2b-eGFP and to quantify perinuclear F-actin intensities and γH2a.x foci in projected image stacks. Only the projected F-actin within the nuclear outline (apical perinuclear F-actin) was counted in this analysis. To account for variations in staining and imaging (the same imaging settings were used), fluorescence channels were histogram normalized. Perinuclear F-actin intensities were calculated as the sum of normalized phalloidin intensities within a nuclear border. DNA damage foci were determined by detecting 2D peaks in the normalized γH2a.x channel using the MATLAB script FastPeakFind (v. 1.7).

[2] = tested on: mouse embryonic skin fibroblasts (MSFs); assay: Live imaging of nuclear area and chromatin condensation (H2b-eGFP) during cyclic stretch routines; type: cell-based; conditions: for change in nuclear area / chromatin condensation (H2b histogram kurtosis and skewness): BAPTA 50 μM, KN-62 10 μM, cytochalasin D 2 μM
Protocol: as §1
The stretch device was mounted on an inverted epi-fluorescence microscope (Ti-Eclipse; Nikon) with a 60× water immersion objective (0.26 μm/pixel) and an EMCCD camera (iXonEM+; Andor Technology). The surrounding of the microscope was humidified to prevent the water on the objective from evaporating during the 1 h experiment. Oil immersion is also possible, but water immersion provided better image quality with the silicone membranes used.
Using MATLAB, a sinusoidal control signal (1 Hz) was sent to the Arduino controller, resulting in a cyclic stretch routine of the membrane (FIG. 1C), with peak strains set to 5% (−0.1 V), 10% (−0.9 V), and 20% (−2.25 V) as determined by the calibration curve. Cells were cyclically stretched for 30 min, followed by 30 min of rest, during which 2 μm z-stacks (0.5 μm steps) of nuclei were acquired. During the rest period, cells experienced no stretch but a constant magnetic field using the offset Arduino input voltage (0.8 V) that keeps the piston suspended at 0% stretch. For acquisition, the cyclic stretch routine was paused for 1 min to allow for a steady imaging plane and fine readjustments in z-position due to water evaporation. Unstretched control cells (0%) were seeded into stretch chambers but kept stationary on the microscope without any magnetic field applied. Unstretched magnetic control cells (MAG) were placed stationary inside the coil without the piston, and a magnetic field corresponding to a 20% sinusoidal stretch routine was applied.
A custom MATLAB code was used to track nuclear outlines via H2b-eGFP and to generate H2b intensity histograms during an image series, from which changes in nuclear area, H2b skewness, and H2b kurtosis were calculated.

[3] = after 30 min 5% cyclic stretch, vs NT or VH control cells
[4] = after 30 min 20% cyclic stretch, vs NT or VH control cells
[5] = 30 min 5% cyclic strain, 1 Hz, vs NT/VH cells (area increases)
[6] = 30 min 5% cyclic strain, 1 Hz, vs NT/VH cells (condensation decreases)
[7] = 30 min 20% cyclic strain, 1 Hz, vs NT/VH cells (area decreases)
[8] = 30 min 20% cyclic strain, 1 Hz, vs NT/VH cells (condensation increases)
[9] = static magnetic-field-only routine (MAG), no stretch
[10] = 20% cyclic strain 30 min, Hoechst-stained vs unstained (H2b) nuclei

| Compound | number of γH2a.x foci per nucleus (DNA damage, double-strand breaks) [1, 3] | perinuclear F-actin intensities ([1]; after 30 min 5% cyclic stretch, vs NT or VH control cells, listed as BP) | number of γH2a.x foci per nucleus (DNA damage, double-strand breaks) [1, 4] | number of γH2a.x foci per nucleus (DNA damage, double-strand breaks) ([1]; static magnetic-field-only controls (MAG), listed as BP) | change in nuclear area [2, 5] | chromatin condensation (H2b histogram kurtosis and skewness) [2, 6] | change in nuclear area [2, 7] | change in nuclear area ([2]; 30 min 20% cyclic strain, 1 Hz, vs NT/VH cells (area decreases), listed as BP) | chromatin condensation (H2b histogram kurtosis and skewness) [2, 8] | chromatin condensation (H2b histogram kurtosis and skewness) ([2]; 30 min 20% cyclic strain, 1 Hz, vs NT/VH cells (condensation increases), listed as BP) | change in nuclear area [2, 9] | chromatin condensation (H2b histogram kurtosis and skewness) [2, 9] | change in nuclear area during stretch [2, 10] | chromatin condensation (histogram kurtosis and skewness) during stretch [2, 10] | change in nuclear area during rest ([2]; 30 min rest after 20% cyclic strain, Hoechst-stained vs unstained (H2b) nuclei) | perinuclear F-actin intensities ([1]; after 30 min 5% cyclic stretch, vs NT or VH control cells, listed as KN) | number of γH2a.x foci per nucleus (DNA damage, double-strand breaks) ([1]; static magnetic-field-only controls (MAG), listed as KN) | change in nuclear area ([2]; 30 min 20% cyclic strain, 1 Hz, vs NT/VH cells (area decreases), listed as KN) | chromatin condensation (H2b histogram kurtosis and skewness) ([2]; 30 min 20% cyclic strain, 1 Hz, vs NT/VH cells (condensation increases), listed as KN) |
| --- | --- | --- | --- | --- | --- | --- | --- | --- | --- | --- | --- | --- | --- | --- | --- | --- | --- | --- | --- |
| O=C(O)CN(CC(=O)O)c1ccccc1OCCOc1ccccc1N(CC(=O)O)CC(=O)O [BAPTA] | showed no difference | abrogated increases; also recorded: abrogated the increase | showed no difference | increased DNA damage | abrogated the increase in nuclear area | abrogated the increase in nuclear area and decrease in chromatin condensation | only minorly effected | had no effect | only minorly effected | had no effect | interfered with the slight decrease in nuclear area | interfered with the slight decrease in nuclear area and increase in chromatin condensation |  |  |  |  |  |  |  |
| CCOc1ccc(-c2nc3ccc(-c4nc5ccc(N6CCN(C)CC6)cc5[nH]4)cc3[nH]2)cc1 [Hoechst, Hoechst 33342] |  |  |  |  |  |  |  |  |  |  |  |  | reduction in nuclear area similar to unstained nuclei | reduced chromatin condensation; also recorded: Reduced chromatin compaction | no regain in nuclear areas; also recorded: no recovery; also recorded: no relaxation |  |  |  |  |
| CN([C@@H](Cc1ccc(OS(=O)(=O)c2cccc3cnccc23)cc1)C(=O)N1CCN(c2ccccc2)CC1)S(=O)(=O)c1cccc2cnccc12 [KN-62] | showed no difference |  | showed no difference |  | abrogated the increase in nuclear area | abrogated the increase in nuclear area and decrease in chromatin condensation | only minorly effected |  | only minorly effected |  | interfered with the slight decrease in nuclear area | interfered with the slight decrease in nuclear area and increase in chromatin condensation |  |  |  | abrogated increases; also recorded: abrogated the increase | increased DNA damage | had no effect | had no effect |
